Data from patent US9725445B2, “Cycloalkyl nitrile pyrazolo pyridones as Janus kinase inhibitors” (Merck Sharp & Dohme Corp., priority 2013, dated 2017).

Each compound was assayed against JAK2 (Homo sapiens (Human), UniProt O60674) (assay: Jak biochemical HTRF assay, JAK2). Settings: HTRF biochemical assay, recombinant GST-tagged catalytic domain; read-out: JAK2 IC50.
JAK2, sequence (O60674 849-1124): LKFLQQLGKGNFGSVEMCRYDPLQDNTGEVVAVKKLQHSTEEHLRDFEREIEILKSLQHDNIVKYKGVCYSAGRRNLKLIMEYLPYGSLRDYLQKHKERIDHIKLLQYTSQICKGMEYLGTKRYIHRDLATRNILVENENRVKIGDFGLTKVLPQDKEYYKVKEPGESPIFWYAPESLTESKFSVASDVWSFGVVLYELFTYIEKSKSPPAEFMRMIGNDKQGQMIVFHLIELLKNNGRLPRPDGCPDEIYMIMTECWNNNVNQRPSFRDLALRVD
Experimental: Jak Biochemical HTRF Assay Protocol
The ability of compounds to inhibit the activity of JAK1, JAK2, JAK3, and Tyk2 was measured using a recombinant purified GST-tagged catalytic domain for each enzyme (Invitrogen JAK1 #M4290, JAK2 #M4290, JAK3 #M4290, Tyk2 #M4290) in an HTRF format biochemical assay. […] The basic assay protocol is as follows: First, 250 nL of diluted compounds in DMSO were dispensed into the wells of a dry 384-well Black plate (Greiner #781076) using a Labcyte Echo 555 acoustic dispenser. Subsequent reagent additions employed an Agilent Bravo. […] After equilibration, 2 μL of 10×ATP in 1× assay buffer was added to initiate the kinase reaction and the plates were shaken and then incubated at room temperature for 120 minutes. […] Plates were shaken and centrifuged and then incubated 60 minutes at room temperature and then read on a Perkin Elmer Envision (λex=337 nm, λem=665 and 615 nm, TRF delay time=20 μs). HTRF signal=10,000*665 nm reading/615 nm reading. After normalization to untreated controls, the percent inhibition of the HTRF signal at each compound concentration was calculated. The plot of percent inhibition versus the log of compound concentration was fit with a 4-parameter dose response equation to calculate IC50 values.
Final Reaction Conditions were:
Examples of the instant invention were evaluated in JAK1 and JAK2 in vitro binding assays.
In the case of `N#C[C@H]1CCCC[C@@H]1n1nc(Nc2ccc3c(c2)C(O)C2(CCCCC2)S3(=O)=O)c2c(=O)[nH]ccc21` (single isomer, unassigned) [Example 3-175, (1S,2S)-2-(3-{[(3R or 3S)-3-hydroxy-1,1-dioxido-3H-spiro[1-benzothiophene-2,1′-cyclohexan]-5-yl]amino}-4-oxo-4,5-dihydro-1H-pyrazolo[4,3-c]pyridin-1-yl)cyclohexanecarbonitrile], the IC50 is reported as 0.26 nM.
Work on `C[C@H](N[C@H]1CC[C@H](n2nc(Nc3ccc(Cl)c(F)c3)c3c(=O)[nH]ccc32)[C@@H](C#N)C1)C1CC1` [Example 5-6, (1S,2S,5S)-2-(3-((4-chloro-3-fluorophenyl)amino)-4-oxo-4,5-dihydro-1H-pyrazolo[4,3-c]pyridin-1-yl)-5-(((S)-1-cyclopropylethyl)amino)cyclohexanecarbonitrile] yielded an IC50 of 55 nM.
Compound `N#C[C@H]1C[C@@H](N2CCC2)CC[C@@H]1n1nc(Nc2ccc(Cl)cc2)c2c(=O)[nH]ccc21` [Example 5-18, (1S,2S,5S)-5-(azetidin-1-yl)-2-(3-((4-chlorophenyl)amino)-4-oxo-4,5-dihydro-1H-pyrazolo[4,3-c]pyridin-1-yl)cyclohexanecarbonitrile] has an IC50 of 13 nM.
With `N#C[C@@H]1CCCCC[C@H]1n1nc(Nc2ccc3c(c2)CN(C2CCCC2)C3=O)c2c(=O)[nH]ccc21` (single isomer, unassigned) [Example 15-52, (1R,2R or 1S,2S)-2-{3-[(2-cyclopentyl-1-oxo-2,3-dihydro-1H-isoindol-5-yl)amino]-4-oxo-4,5-dihydro-1H-pyrazolo[4,3-c]pyridin-1-yl}cycloheptanecarbonitrile] the IC50 was 0.3 nM.
`CC(C)(C)S(=O)(=O)c1ccc(Nc2nn([C@@H]3CC(F)(F)C[C@H]3C#N)c3cc[nH]c(=O)c23)cc1` (single isomer, unassigned) [Example 22-3, (1R,2R or 1S,2S)-2-(3-{[4-(tert-butylsulfonyl)phenyl]amino}-4-oxo-4,5-dihydro-1H-pyrazolo[4,3-c]pyridin-1-yl)-4,4-difluorocyclopentanecarbonitrile] showed an IC50 of 17 nM.
With `N#C[C@H]1C[C@H](N2CCC2)CC[C@@H]1n1nc(Nc2ccc(Cl)cc2)c2c(=O)[nH]ccc21` [Example 5-17, (1S,2S,5R)-5-(azetidin-1-yl)-2-(3-((4-chlorophenyl)amino)-4-oxo-4,5-dihydro-1H-pyrazolo[4,3-c]pyridin-1-yl)cyclohexanecarbonitrile] the IC50 was 33 nM.
In the case of `C[C@H](N[C@@H]1CC[C@H](n2nc(Nc3ccc(Cl)c(F)c3)c3c(=O)[nH]ccc32)[C@@H](C#N)C1)C1CC1` [Example 5-5, (1S,2S,5R)-2-(3-((4-chloro-3-fluorophenyl)amino)-4-oxo-4,5-dihydro-1H-pyrazolo[4,3-c]pyridin-1-yl)-5-(((S)-1-cyclopropylethyl)amino)cyclohexanecarbonitrile], the IC50 is reported as 113 nM.
With `N#C[C@H]1CCCC[C@@H]1n1nc(Nc2ccc(C(O)C(F)F)cc2)c2c(=O)[nH]ccc21` (stereo partly drawn) [Example 3-70, (1S,2S)-2-(3-{[4-(2,2-difluoro-1-hydroxyethyl)phenyl]amino}-4-oxo-4,5-dihydro-1H-pyrazolo[4,3-c]pyridin-1-yl)cyclohexanecarbonitrile] the IC50 was 0.61 nM.
`N#C[C@H]1CCCC[C@@H]1n1nc(Nc2ccc3c(c2)CCNC3)c2c(=O)[nH]ccc21` [Example 3-156, (1S,2S)-2-[4-oxo-3-(1,2,3,4-tetrahydroisoquinolin-6-ylamino)-4,5-dihydro-1H-pyrazolo[4,3-c]pyridin-1-yl]cyclohexanecarbonitrile] showed an IC50 of 2.6 nM.
For `CC(O)(CCO)c1cc(Nc2nn([C@H]3CCCC[C@@H]3C#N)c3cc[nH]c(=O)c23)ccc1S(C)(=O)=O` (stereo partly drawn) [Example 3-86, (1S,2S)-2-(3-{[3-(1,3-dihydroxy-1-methylpropyl)-4-(methylsulfonyl)phenyl]amino}-4-oxo-4,5-dihydro-1H-pyrazolo[4,3-c]pyridin-1-yl)cyclohexanecarbonitrile], the IC50 was 7.6 nM.
For `CC(O)(c1ccc(Nc2nn([C@H]3CCC[C@@H]3C#N)c3cc[nH]c(=O)c23)cc1)C(F)(F)F` (single isomer, unassigned) [Example 3-138, (1S,2S)-2-[4-oxo-3-({4-[(1R or 1S)-2,2,2-trifluoro-1-hydroxy-1-methylethyl]phenyl}amino)-4,5-dihydro-1H-pyrazolo[4,3-c]pyridin-1-yl]cyclopentanecarbonitrile], the IC50 was 0.66 nM.
`CC(C)(C)S(=O)(=O)c1ccc(Nc2nn([C@H]3CC(F)(F)C[C@@H]3C#N)c3cc[nH]c(=O)c23)cc1` (single isomer, unassigned) [Example 22-4, (1S,2S or 1R,2R)-2-(3-{[4-(tert-butylsulfonyl)phenyl]amino}-4-oxo-4,5-dihydro-1H-pyrazolo[4,3-c]pyridin-1-yl)-4,4-difluorocyclopentanecarbonitrile] gave an IC50 of 0.35 nM.
Work on `CC(O)(c1ccc(Nc2nn([C@H]3CCC[C@@H]3C#N)c3cc[nH]c(=O)c23)cc1)C(F)(F)F` (single isomer, unassigned) [Example 3-139, (1S,2S)-2-[4-oxo-3-({4-[(1R or 1S)-2,2,2-trifluoro-1-hydroxy-1-methylethyl]phenyl}amino)-4,5-dihydro-1H-pyrazolo[4,3-c]pyridin-1-yl]cyclopentanecarbonitrile] yielded an IC50 of 0.35 nM.
`N#C[C@H]1CCCC[C@@H]1n1nc(Nc2ccc3c(c2)C(O)C2(CCCCC2)S3(=O)=O)c2c(=O)[nH]ccc21` (single isomer, unassigned) [Example 3-174, (1S,2S)-2-(3-{[(3S or 3R)-3-hydroxy-1,1-dioxido-3H-spiro[1-benzothiophene-2,1′-cyclohexan]-5-yl]amino}-4-oxo-4,5-dihydro-1H-pyrazolo[4,3-c]pyridin-1-yl)cyclohexanecarbonitrile] was tested, and the IC50 was 0.49 nM.
For `CC(C)S(=N)(=O)c1ccc(Nc2nn(C3CCC[C@@H]3C#N)c3cc[nH]c(=O)c23)cc1` (single isomer, unassigned) [Example 3-109, (1S,2S)-2-[3-({4-[(S or R)-S-(1-methylethyl)sulfonimidoyl]phenyl}amino)-4-oxo-4,5-dihydro-1H-pyrazolo[4,3-c]pyridin-1-yl]cyclopentanecarbonitrile], the IC50 was 0.47 nM.
`CC(C)C(c1ccc(Nc2nn([C@H]3CCCC[C@@H]3C#N)c3cc[nH]c(=O)c23)cc1)n1ccnn1` (single isomer, unassigned) [Example 15-23, (1S,2S)-2-[3-({4-[(1R or 1S)-2-methyl-1-(1H-1,2,3-triazol-1-yl)propyl]phenyl}amino)-4-oxo-4,5-dihydro-1H-pyrazolo[4,3-c]pyridin-1-yl]cyclohexanecarbonitrile] showed an IC50 of 0.25 nM.
In the case of `CC(C)C(c1ccc(Nc2nn([C@H]3CCCC[C@@H]3C#N)c3cc[nH]c(=O)c23)cc1)n1ccnn1` (single isomer, unassigned) [Example 15-24, (1S,2S)-2-[3-({4-[(1S or 1R)-2-methyl-1-(1H-1,2,3-triazol-1-yl)propyl]phenyl}amino)-4-oxo-4,5-dihydro-1H-pyrazolo[4,3-c]pyridin-1-yl]cyclohexanecarbonitrile], the IC50 is reported as 0.27 nM.
`CC(C)NC(c1ccc(Nc2nn([C@H]3CCC[C@@H]3C#N)c3cc[nH]c(=O)c23)cc1)C(F)(F)F` (single isomer, unassigned) [Example 3-116, (1S,2S)-2-{4-oxo-3-[(4-{(1S or 1R)-2,2,2-trifluoro-1-[(1-methylethyl)amino]ethyl}phenyl)amino]-4,5-dihydro-1H-pyrazolo[4,3-c]pyridin-1-yl}cyclopentanecarbonitrile] gave an IC50 of 0.2 nM.
Compound `CC(C)NC(c1ccc(Nc2nn([C@H]3CCC[C@@H]3C#N)c3cc[nH]c(=O)c23)cc1)C(F)(F)F` (single isomer, unassigned) [Example 3-115, (1S,2S)-2-{4-oxo-3-[(4-{(1R or 1S)-2,2,2-trifluoro-1-[(1-methylethyl)amino]ethyl}phenyl)amino]-4,5-dihydro-1H-pyrazolo[4,3-c]pyridin-1-yl}cyclopentanecarbonitrile] has an IC50 of 0.33 nM.
`CC(C)(C)S(=O)(=O)c1ccc(Nc2nn([C@@H]3CC(F)(F)C[C@@H]3C#N)c3cc[nH]c(=O)c23)cc1` (single isomer, unassigned) [Example 22-2, (1S,2R or 1R,2S)-2-(3-((4-(tert-Butylsulfonyl)phenyl)amino)-4-oxo-4,5-dihydro-1H-pyrazolo[4,3-c]pyridin-1-yl)-4,4-difluorocyclopentanecarbonitrile] gave an IC50 of 21 nM.
`CC(C)(C)S(=O)(=O)c1ccc(Nc2nn([C@H]3CC(F)(F)C[C@H]3C#N)c3cc[nH]c(=O)c23)cc1` (single isomer, unassigned) [Example 22-1, (1R,2S or 1S,2R)-2-(3-((4-(tert-Butylsulfonyl)phenyl)amino)-4-oxo-4,5-dihydro-1H-pyrazolo[4,3-c]pyridin-1-yl)-4,4-difluorocyclopentanecarbonitrile] was tested, and the IC50 was 3.5 nM.
In the case of `N#C[C@H]1CCCCC[C@@H]1n1nc(Nc2ccc3c(c2)CN(C2CCCC2)C3=O)c2c(=O)[nH]ccc21` (single isomer, unassigned) [Example 15-50, (1S,2S or 1R,2R)-2-{3-[(2-cyclopentyl-1-oxo-2,3-dihydro-1H-isoindol-5-yl)amino]-4-oxo-4,5-dihydro-1H-pyrazolo[4,3-c]pyridin-1-yl}cycloheptanecarbonitrile], the IC50 is reported as 14 nM.
